Columns and labels:
[1] = Aqueous solubility of the compound; format: physicochemical
Albumin = Albumin (Bos taurus, UniProt P02769); assay: Binding affinity to bovine serum albumin
Albumin, sequence (P02769 whole entry): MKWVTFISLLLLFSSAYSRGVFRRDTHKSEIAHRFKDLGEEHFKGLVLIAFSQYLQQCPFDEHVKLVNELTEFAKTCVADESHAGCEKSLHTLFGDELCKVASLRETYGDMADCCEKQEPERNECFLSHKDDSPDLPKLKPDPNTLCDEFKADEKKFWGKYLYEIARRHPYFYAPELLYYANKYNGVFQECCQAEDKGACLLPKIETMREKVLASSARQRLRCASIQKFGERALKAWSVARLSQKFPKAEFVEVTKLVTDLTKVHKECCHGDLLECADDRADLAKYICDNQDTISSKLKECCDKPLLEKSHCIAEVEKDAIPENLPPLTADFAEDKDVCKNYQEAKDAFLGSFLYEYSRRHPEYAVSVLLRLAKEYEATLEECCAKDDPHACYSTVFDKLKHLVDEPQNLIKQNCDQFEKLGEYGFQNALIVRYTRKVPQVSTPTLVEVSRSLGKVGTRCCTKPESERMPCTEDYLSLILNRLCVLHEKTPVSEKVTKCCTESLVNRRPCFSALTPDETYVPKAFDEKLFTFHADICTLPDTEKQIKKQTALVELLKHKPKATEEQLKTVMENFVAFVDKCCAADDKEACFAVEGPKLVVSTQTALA

solubility [1]	EC50 (Albumin)	SMILES
> 100 µM	–	CCN(CC)c1ccc2nc3c4ccc(OCCCC(=O)O)cc4c(=O)c(Br)c-3oc2c1
> 100 µM	–	CCN(CC)c1ccc2nc3c4ccc(OCCCC(=O)O)cc4c(=O)cc-3oc2c1
> 100 µM	1500 nM	CCN(CC)c1ccc2nc3c4cc(OCCCC(=O)O)ccc4c(=O)cc-3oc2c1
> 100 µM	–	CCN(CC)c1ccc2nc3c4cc(OCCCC(=O)O)ccc4c(=O)c(Br)c-3oc2c1

Reference: ChEMBL document CHEMBL1143986, “Probing lipid- and drug-binding domains with fluorescent dyes” (Bioorg Med Chem, 2008)
